Test results as given in patent US12410124B2 (priority 2019, dated 2025).

Assays:
Type in all cases: in vivo
[1] = system: substantia nigra pp38; assay: Substantia nigra pp38 protein expression in MPTP Parkinson's disease model mouse (immunofluorescence); settings: percentage of mean intensity of blank control group, gavage 21 days after MPTP modeling
Protocol: (§1) Neurotoxins can be used to establish PD animal models. Currently, 1-methyl-4-phenyl-1,2,3,6-tetrahydropyridine (MPTP) is the sole synthetic toxin which is recognized to induce PD symptoms in human and non-human primates and in mice. Using MPTP subacute modeling method, C57BL/6J male mice were intraperitoneally injected with MPTP 30 mg/kg, once a day for 5 consecutive days. The experiment animals were divided into blank control group, MPTP model group, and compound treatment group. For the […] compound treatment group, the compound was administrated by gavage for 21 consecutive days after the completion of modeling; for the MPTP model group, the normal saline was administrated by gavage for 21 consecutive days after the completion of modeling; and for the blank control group, the normal saline was first intraperitoneally injected for 5 days, and then administrated by gavage for 21 days.
The p38 mitogen-activated protein kinase (p38 MAPK) is expressed in both neurons and glial cells, and is the intersection point of neuron-glial cell network information regulations. The activation of p38 signaling pathway is an important initiator of neuronal degeneration, which continuously induces the apoptosis of dopaminergic neurons in multiple ways. It has become a research hotspot for the treatment of PD. Studies have shown that the protective mechanism of CAPE against the death of primary cultured cerebellar granule neurons induced by glutamate lies in inhibiting the activation of p38 phosphorylation and in turn inhibiting the activation of the caspase 3 apoptotic pathway to prevent neuronal apoptosis. Therefore, the MPTP-induced PD mouse model can be used to investigate the inhibitory effect of the target compounds on the activation of p38 phosphorylation on the overall animal level.
(§2) Half of experiment mice in each group were taken to separate the midbrain after perfusion and fixation. The tissue was trimmed, and the substantia nigra-striatum area was taken to prepare paraffin sections. The double immunofluorescence staining for TH and phosphorylated p38 was performed to observe the coexpression of TH and phosphorylated p38, for the statistics of the change in the phosphorylated p38 protein expression. The experiment included blank control group, MPTP model group, positive control group (caffeic acid phenethyl ester, CAPE), prototype control group (styryl sulfone compounds 3B, 3C, 3D, and 3G, whose structures are shown as above), and target compound group.

[2] = system: hippocampus CD11b; assay: Number of hippocampus microglial cells with CD11b positive expression in MPTP Parkinson's disease model mouse (immunohistochemistry); settings: for Positive cell number (microglial cells with CD11b positive expression): hippocampus, MPTP Parkinson's disease model mouse, immunohistochemistry
Protocol: as §1
(§3) Neuron-glial cell network homeostasis disorder is an important factor for the selective and progressive death of substantia nigra dopaminergic neurons in PD. In the neurotoxic effect of MPTP, the excessive activations of microglial cells and astrocytes produce a variety of inflammatory cytokines and reactive oxygen species (ROS). These inflammatory factors and ROS amplify their respective toxicities and mediate malignant feedback loop, causing a cascade inflammation response and aggravating the pathological process of PD. CD11b and GFAP are the marker proteins for activations of microglial cells and astrocytes, respectively. Therefore, the effect of the target compounds on the activations of the microglial cells and astrocytes in the substantia nigra, hippocampus, and midbrain areas of MPTP-induced PD mice can be investigated, to explore the mechanism of the anti-PD effect of the target compounds by inhibiting the neuroinflammation.
as §2, with “hippocampus” for “substantia nigra-striatum”, “CD11b immunohistochemical” for “double immunofluorescence”, “staining” for “staining for TH and phosphorylated p38”, “performed” for “performed to observe the coexpression of TH and phosphorylated p38,”, “number of microglial cells with CD11b positive” for “phosphorylated p38 protein”

[3] = system: GCLC; assay: Midbrain GCLC expression in MPTP Parkinson's disease model mouse (western blot); settings: for Expression (GCLC/GAPDH): midbrain, MPTP Parkinson's disease model mouse, western blot
Protocol: as §1
(§4) Oxidative stress is an important pathogenic mechanism of PD. Dopaminergic neurons are more sensitive to oxidative stress and are more susceptible to oxidative stress damage. Glutathione (GSH) is an important antioxidant substance in the cell, and glutamate cysteine ligase (GCL) is the rate-limiting enzyme for GSH synthesis, which is composed of catalytic subunit (GCLC) and regulatory subunit (GCLM). The increase of GCLC expression can promote the synthesis of GSH and enhance the ability of tissue cells against oxidative stress. GCL, a phase II enzyme, plays an important protective role by catalyzing the conversion of free radicals into non-toxic products and increasing their water solubility to facilitate the elimination of free radicals, and maintain the redox balance in the body. It plays an important role in the process of protecting cells against oxidative stress damage. The activation of p38 protein phosphorylation has a negative regulatory effect on phase II enzymes. […] Using GCLC as an indicator, the inhibitory effect of the target compounds on MPTP-induced oxidative stress damage in PD mice can be investigated.
(§5) GCLC is expressed in astrocytes, microglial cells, and neurons. The total proteins of the midbrain tissue of mice in each experiment group were extracted, to determine the expression of phase II enzyme GCLC in the midbrain of mice by western blot using GAPDH as the internal reference. The experiment included blank control group, MPTP model group, positive control group (caffeic acid phenethyl ester, CAPE), prototype control group (styryl sulfone compounds 3B, 3C, 3D), and 3G, whose structures are shown as above), and target compound group.

[4] = system: HO-1; assay: Midbrain HO-1 expression in MPTP Parkinson's disease model mouse (western blot); settings: for Expression (HO-1/GAPDH): midbrain, MPTP Parkinson's disease model mouse, western blot
Protocol: as §1
as §4, with “Heme oxygenase (HO-1),” for “Glutathione (GSH) is an important antioxidant substance in the cell, and glutamate cysteine ligase (GCL) is the rate-limiting enzyme for GSH synthesis, which is composed of catalytic subunit (GCLC) and regulatory subunit (GCLM). The increase of GCLC expression can promote the synthesis of GSH and enhance the ability of tissue cells against oxidative stress. GCL,”, “enzyme, is also a well-known antioxidase. It” for “enzyme,”, “HO-1” for “GCLC”
as §5, with “HO-1” for “GCLC”, “3D,” for “3D),”

[5] = system: hippocampus GFAP; assay: Number of hippocampus astrocytes with GFAP positive expression in MPTP Parkinson's disease model mouse (immunohistochemistry); settings: for Positive cell number (astrocytes with GFAP positive expression): hippocampus, MPTP Parkinson's disease model mouse, immunohistochemistry
Protocol: as §1, §3
as §2, with “hippocampus” for “substantia nigra-striatum”, “GFAP immunohistochemical” for “double immunofluorescence”, “staining” for “staining for TH and phosphorylated p38”, “performed” for “performed to observe the coexpression of TH and phosphorylated p38,”, “number of astrocytes with GFAP positive” for “phosphorylated p38 protein”

Compound | Expression (Immunofluorescence intensity %) [1] [%] | number of hippocampus microglial cells with CD11b positive expression compared with the styryl sulfone prototype compounds [2] | Positive cell number (microglial cells with CD11b positive expression) [2] | midbrain GCLC expression compared with the styryl sulfone prototype compounds [3] | Expression (GCLC/GAPDH) [3] | midbrain HO-1 expression compared with the styryl sulfone prototype compounds [4] | Expression (HO-1/GAPDH) [4] | number of hippocampus astrocytes with GFAP positive expression compared with the styryl sulfone prototype compounds [5] | Positive cell number (astrocytes with GFAP positive expression) [5]
CCN(CC)C(=O)Oc1ccc(/C=C/S(=O)(=O)Cc2ccc(C(F)(F)F)cc2)cc1OC(=O)N(CC)CC [Compound B1-1, (E)-4-{2-[(4-trifluoromethylphenyl)mesyl]ethenyl}-1,2-phenylenebis(diethylcarbamate)] | 76.35 ± 21.90 | significantly lower | 9 ± 2 | significantly higher | 1.17 ± 0.06 | significantly higher | 0.90 ± 0.10 | significantly lower | 64 ± 4
CC(=O)Oc1ccc(/C=C/S(=O)(=O)Cc2c(F)c(F)c(F)c(F)c2F)cc1OC(=O)NC(=O)c1ccc([N+](=O)[O-])c(C)c1 [Compound D5-4, (E)-2-[N-(3-methyl-4-nitrobenzoyl)carbamoyloxy]-4-{2-[(perfluorophenyl)mesyl]ethenyl}phenyl acetate] | 103.25 ± 15.27 | – | 12 ± 2 | – | 0.97 ± 0.07 | – | 0.93 ± 0.10 | – | 59 ± 3
CC(C)(C)c1ccc(CS(=O)(=O)/C=C/c2ccc(O)c(O)c2)cc1 [Compound 3G, (E)-4-{2-[(4-t-butylphenyl)mesyl]ethenyl}benzene-1,2-diol, reference compound] | 118.25 ± 10.60 | – | 18 ± 3 | – | 0.57 ± 0.09 | – | 0.51 ± 0.07 | – | 130 ± 6
CCN(CC)C(=O)Oc1ccc(/C=C/S(=O)(=O)Cc2ccc(Cl)cc2)cc1OC(=O)N(CC)CC [Compound D1-1, (E)-4-{2-[(4-chlorophenyl)mesyl]ethenyl}-1,2-phenylenebis(diethylcarbamate)] | 57.50 ± 15.33 | significantly lower | 7 ± 1 | significantly higher | 1.29 ± 0.05 | significantly higher | 1.63 ± 0.12 | significantly lower | 58 ± 5
CN(C)c1ccc(CC(=O)Oc2cc(/C=C/S(=O)(=O)C(Br)c3ccc(Cc4ccc(N(C)C)cc4)cc3)ccc2OC(=O)N2CCCC2C(F)(F)F)cc1 (stereo not drawn) [Compound M1-5] | 87.45 ± 11.05 | – | 11 ± 1 | – | 1.35 ± 0.08 | – | 0.96 ± 0.08 | – | 67 ± 6
CC(Br)C(Br)COc1cc(/C=C/S(=O)(=O)CCc2ccc(OCC(F)(F)F)cc2)ccc1OC(=O)Nc1ccsc1 (stereo not drawn) [Compound K1-3, (E)-2-(2,3-dibromobutoxy)-4-{2-[4-(2,2,2-trifluoroethoxy)phenylethylsulfonyl]ethenyl}phenyl-N-(thien-3-yl)carbamate] | 73.08 ± 18.10 | – | 16 ± 1 | – | 1.13 ± 0.08 | – | 0.83 ± 0.08 | – | 65 ± 5
Cc1ccc(N2CCN(C(=O)Oc3ccc(/C=C/S(=O)(=O)CCCC(c4ccc(OC(=O)CN(C)C)cc4)N(C)C)cc3OC(=O)N(C)c3ccccc3)CC2)cc1 (stereo not drawn) [Compound P1-1, (E)-4-{2-[4-(dimethylamino)-4-(4-(N,N-dimethylglycyloxy)phenyl)butylsulfonyl]ethenyl}-2-(N-methyl-N-phenylcarbamoyloxy)phenyl-4-(p-methylphenyl)piperazine-1-carboxylate] | 99.55 ± 8.46 | – | 7 ± 2 | – | 0.98 ± 0.06 | – | 1.17 ± 0.05 | – | 72 ± 3
O=C(NC(=O)C(F)(F)F)Oc1ccc(/C=C/S(=O)(=O)C(F)(F)c2ccc(Oc3ccccn3)cc2)cc1OC(=O)C(F)(F)C(F)(F)F [Compound L1-4, (E)-5-{2-[(4-[pyridin-2-yl-oxy]phenyl)difluoromethylsulfonyl]ethenyl}-2-[N-(2,2,2-trifluoroacetyl)carbamoyloxy]phenyl-2,2,3,3,3-pentafluoropropionate] | 62.93 ± 17.51 | – | 15 ± 2 | – | 0.96 ± 0.10 | – | 1.13 ± 0.12 | – | 76 ± 4
